Results taken from paper PMC5519041, “Differing roles for short chain fatty acids and GPR43 agonism in the regulation of intestinal barrier function and immune responses” (PLoS ONE, 2017).
Where two headings read alike, the source gives them in different places.

Assays:
human GPR43 = molecular target: T1, human GPR43 (Homo sapiens, UniProt O15552); experiment: cAMP inhibition assay (HTRF), forskolin-induced cAMP in CHO cells stably expressing human GPR43; assay type: cell-based; settings: inhibition of forskolin-induced cAMP production
T1 construct: expressed in transfected cells
T1 sequence (O15552 1-330): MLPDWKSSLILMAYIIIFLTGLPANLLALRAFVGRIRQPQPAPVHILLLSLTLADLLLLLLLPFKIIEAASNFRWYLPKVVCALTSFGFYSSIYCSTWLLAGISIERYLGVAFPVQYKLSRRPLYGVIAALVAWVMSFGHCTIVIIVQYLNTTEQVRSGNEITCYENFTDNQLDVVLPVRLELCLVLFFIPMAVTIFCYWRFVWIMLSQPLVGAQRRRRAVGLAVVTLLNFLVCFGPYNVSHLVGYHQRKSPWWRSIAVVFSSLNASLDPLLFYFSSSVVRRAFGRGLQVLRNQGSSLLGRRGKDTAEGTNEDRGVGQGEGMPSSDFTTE
Experimental: A competitive, HTRF® immunoassay (CisBio Dynamic 2 cAMP kit) was used to measure the inhibition of cAMP response in CHO cells stably expressing human GPR43. Assay-ready cells were thawed, resuspended in PBS and stimulated with forskolin (3μM final) for 45 minutes at room temperature in the presence of serially diluted natural ligands or test compounds in a 384 well plate (Greiner). Subsequently the cells were lysed by adding lysis buffer containing the cAMP-Tracer and Europium-labeled anti-cAMP antibody according to the manufacturer’s protocol. The signals were recorded using a Perkin Elmer Envision. The raw data was calculated as fluorescence ratio (665nm/620nm) and analyzed using GraphPad Prism Software.

human FFA2 receptor = molecular target: T2, human FFA2 receptor (Homo sapiens, UniProt O15552); experiment: Aequorin assay, cytosolic calcium in CHO-K1 cells stably expressing aequorin and human FFA2 receptor; assay type: cell-based; settings: CHO-K1 cells stably expressing human GPR43, read-out: Ca^2+ (Aequorin)
T2 construct: expressed in transfected cells
T2 sequence (O15552 1-330): T1 sequence (O15552 1-330)
Experimental: Agonist-induced receptor activation was determined by an increase in cytosolic calcium concentration in CHO-K1 cells stably expressing the mitochondrial targeted aequorin and human FFA2 receptor. The increased cytosolic calcium was monitored by luminescence emitted from aequorin as previously described

C2BBe1 cells [1] = experiment: Intestinal barrier function by ECIS in C2BBe1 cells; assay type: cell-based, human; settings: 48 hours; for barrier resistance (ECIS), barrier formation: 75 Hz, #58 at 1 uM and 10 uM vs DMSO control
Experimental: Cells were cultured in DMEM containing 10% FBS, and the next day (day 1), the medium was replaced with that containing 0.5% serum. On day 2, media was changed and test agents were added in duplicate in media containing 0.5% serum. The experiment was concluded 48 hours later (day 4). Barrier resistance was measured on the ECIS instrument. The plots shown are at 75 Hz beginning at day 2 post-addition of the test agents with resistance values normalized to those observed just prior to the addition of test agents. For barrier disruption and reformation studies, cells were cultured in transwells in the ECIS array as described above in the presence of 10% serum for one day and 0.5% serum for another day. On day 2, the media was replaced with media containing 0.5% serum and 2.5 mM EGTA (in apical and basolateral chambers). The EGTA was washed off 5 hours later and replaced with media containing 0.5% serum and test agents. Cells were monitored over the next 48 hours for barrier reformation and the plots shown are at 75 Hz with resistance values normalized to those observed just prior to the addition of test agents.

human PBMC = experiment: LPS stimulation of PBMC, cytokine production; assay type: cell-based; settings: for effect on LPS-induced cytokine production: μM range; for effect on LPS-induced cytokine production / IC50: 1 μg/mL LPS, 18 hours; for IC50: Homo sapiens, PBMC, 45 minutes preincubation
Experimental: Amgen Institutional Review Board approval and consent was obtained for collection and the studies involving human blood. PBMC were isolated from heparinized blood using Ficoll and then plated onto 96-well plates. Butyrate or GPR43 agonists were incubated with the PBMC for 45 minutes prior to the addition of 1 μg/mL lipopolysaccharide (LPS). Cell culture supernatants were collected at 18 hours post-stimulation. TNFα, IL-1β and IL-6 production were measured using Meso Scale Discovery multiplex kits.

human T cells = experiment: One-way mixed lymphocyte reaction, T cell proliferation and cytokines; assay type: cell-based
Source text: Amgen Institutional Review Board approval and consent was obtained for collection and the studies involving human blood. PBMC were obtained from volunteers’ human blood using Ficoll. T cells were isolated using magnetic sorting with a pan T cell isolation kit (Miltenyi Biotec). Stimulator cells were isolated by negative magnetic sorting using anti-CD3 beads to deplete CD3+ cells. The stimulator cells were irradiated and mixed together with the purified T cells in the presence or absence of the SCFA or agonist. Supernatants were collected at day 3 for cytokine measurements using Meso Scale Discovery multiplex kits, and proliferation was measured at day 4 after an 18 hour pulse with 1μCi 3H-thymidine per well.

[2] = system: intestinal epithelial cells; parameters: method as in PMID 9142899, PMID 17211138; settings: published data ref [13], [15]; cited from earlier work
C2BBe1 cells [3] = experiment: Intestinal barrier function by TEER and Lucifer Yellow in C2BBe1 monolayers
[4] = 72 h, supernatant day 3, read-out: IL-17A IC50

EC50 (human GPR43)	EC50 (human FFA2 receptor; 10% FBS)	EC50 (human FFA2 receptor; No FBS)	SMILES	barrier resistance (ECIS), barrier formation (C2BBe1 cells [1])	effect on LPS-induced cytokine production (human PBMC)	IC50 (human T cells; [4])	barrier reformation after EGTA disruption (ECIS resistance) (C2BBe1 cells [1]; 2.5 mM EGTA 5 hours, then test agents)	IC50 (human PBMC; read-out: IL-1β IC50)	IC50 (human PBMC; read-out: IL-6 IC50)	IC50 (human PBMC; read-out: TNFα IC50)	cell viability (human PBMC; highest concentrations utilized in this assay)	IC50 (human T cells; 72 h, supernatant day 3, read-out: IFNγ IC50)	IC50 (human T cells; day 4, 3H-thymidine, read-out: Proliferation IC50)	concentrations toxic to intestinal epithelial cells [2]	toxicity in TEER assays (C2BBe1 cells [3]; 5 mM)	effect on transepithelial electrical resistance (TEER) (C2BBe1 cells [3]; C2BBe1 monolayers, day 5)
1.8 µM	0.6 µM	0.3 µM	CC(C)(C)[C@H](C(=O)Nc1ncc(-c2ccccc2)s1)c1ccc(Cl)cc1 [#58]	did not result in increased resistance	slight increase in some cytokines	8.88 µM										
1.1 µM	1 µM	0.6 µM	CC(C)[C@H](C(=O)Nc1ncc(F)s1)c1ccc(Cl)cc1 [#44]		only the highest concentration of the agonist #44 resulted in inhibition of cytokine production	2.45 µM										
1060 µM			CCCC(=O)O [Butyrate, butyrate]	quicker increase, as well as higher measurements of resistance		60 µM	earlier and higher levels of resistance	440 µM	2440 µM	130 µM	not altered	50 µM	170 µM	> 5000 µM	appeared to be toxic	most potent of the three SCFA
